Test results taken from US20090299044A1 (priority 2006, published 2009).
Bridge positions count the residues as written; N and C are the ends. Square brackets hold non-standard residues; d marks the D form. Peptide text beside a SMILES is read from it. 1Nal = N[C@@H](Cc1cccc2ccccc12)C(=O)O

What was measured:
human Kv1.3 (CHO) = target: T1, human Kv1.3 (CHO) (Homo sapiens, UniProt P22001); assay: cell-based
T1 construct: expressed in transfected cells; host or cells: CHO

human Kv1.1 (HEK293) = target: T2, human Kv1.1 (HEK293) (Homo sapiens, UniProt Q09470); assay: cell-based
T2 construct: expressed in transfected cells; host or cells: HEK293
T2 sequence (Q09470 whole entry): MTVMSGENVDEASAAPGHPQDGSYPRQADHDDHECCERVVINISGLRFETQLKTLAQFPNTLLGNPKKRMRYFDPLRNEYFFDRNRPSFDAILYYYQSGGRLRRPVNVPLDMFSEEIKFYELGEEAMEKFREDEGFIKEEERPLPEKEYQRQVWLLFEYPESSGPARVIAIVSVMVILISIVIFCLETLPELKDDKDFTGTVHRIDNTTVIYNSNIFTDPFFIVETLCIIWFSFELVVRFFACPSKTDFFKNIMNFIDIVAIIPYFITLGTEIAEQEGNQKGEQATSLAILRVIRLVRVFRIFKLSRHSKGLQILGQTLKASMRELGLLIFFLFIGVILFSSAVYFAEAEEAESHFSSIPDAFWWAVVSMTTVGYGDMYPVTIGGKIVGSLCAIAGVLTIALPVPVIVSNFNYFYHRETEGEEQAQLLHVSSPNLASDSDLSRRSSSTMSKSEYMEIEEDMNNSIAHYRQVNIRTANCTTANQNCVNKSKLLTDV

T1 sequence (P22001 whole entry): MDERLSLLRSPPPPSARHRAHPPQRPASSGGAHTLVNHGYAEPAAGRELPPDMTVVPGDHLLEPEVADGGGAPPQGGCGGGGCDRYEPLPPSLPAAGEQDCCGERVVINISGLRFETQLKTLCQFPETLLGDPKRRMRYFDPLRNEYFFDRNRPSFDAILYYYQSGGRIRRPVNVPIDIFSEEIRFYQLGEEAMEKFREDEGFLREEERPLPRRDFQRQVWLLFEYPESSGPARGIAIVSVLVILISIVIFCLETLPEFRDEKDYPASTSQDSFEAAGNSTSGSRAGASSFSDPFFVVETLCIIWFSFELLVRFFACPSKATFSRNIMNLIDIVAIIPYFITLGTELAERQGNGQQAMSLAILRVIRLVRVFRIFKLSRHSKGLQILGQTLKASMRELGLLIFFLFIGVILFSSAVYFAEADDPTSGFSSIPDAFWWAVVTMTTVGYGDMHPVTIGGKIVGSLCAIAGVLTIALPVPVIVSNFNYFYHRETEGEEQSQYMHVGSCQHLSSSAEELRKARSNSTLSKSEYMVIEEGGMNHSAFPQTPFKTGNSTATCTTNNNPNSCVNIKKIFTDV

| Compound | IC50 (human Kv1.3 (CHO)) [nM] | IC50 (human Kv1.1 (HEK293)) [nM] |
| --- | --- | --- |
| CC[C@H](C)[C@@H]1NC(=O)[C@H](CCCCN)NC(=O)[C@@H](NC(=O)[C@H](CCCCN)NC(=O)[C@@H](NC(=O)[C@H](CC(N)=O)NC(=O)[C@@H](NC(=O)[C@@H](NC(=O)[C@@H](NC(=O)CN)C(C)C)[C@@H](C)CC)[C@@H](C)CC)C(C)C)CSSC[C@@H]2NC(=O)[C@H](CCCCN)NC(=O)CNC(=O)[C@H](Cc3ccccc3)NC(=O)[C@H](CCCNC(=N)N)NC(=O)[C@H](CCSC)NC(=O)CNC(=O)[C@H](C)NC(=O)[C@H](CCC(=O)O)NC(=O)[C@H](CCCCN)NC(=O)[C@@H]3CSSC[C@@H](C(=O)N[C@H](C(=O)N4CCC[C@H]4C(=O)N[C@@H](CCCCN)C(=O)O)[C@@H](C)O)NC(=O)[C@H](Cc4c[nH]cn4)NC(=O)[C@H](CSSC[C@H](NC(=O)[C@H](CCC(N)=O)NC(=O)[C@H](CCCNC(=N)N)NC(=O)[C@H](CO)NC1=O)C(=O)N[C@@H](CC(C)C)C(=O)N[C@@H](CCC(=O)O)C(=O)N1CCC[C@H]1C(=O)N3)NC(=O)[C@H](CCCCN)NC(=O)CNC(=O)[C@H](CC(N)=O)NC(=O)[C@H](CCSC)NC2=O [K20E] (H-GVIINVKCKISRQCLEPCKEAGMRFGKCMNGKCHCTPK-OH; disulfide 8-28, 14-33, 18-35) | 0.0254 | 0.00576 |
| CC[C@H](C)[C@@H]1NC(=O)[C@H](CCCCN)NC(=O)[C@@H](NC(=O)[C@H](CCCCN)NC(=O)[C@@H](NC(=O)[C@H](CC(N)=O)NC(=O)[C@@H](NC(=O)[C@@H](NC(=O)[C@@H](NC(=O)CN)C(C)C)[C@@H](C)CC)[C@@H](C)CC)C(C)C)CSSC[C@@H]2NC(=O)[C@H](CCCCN)NC(=O)CNC(=O)[C@H](Cc3ccccc3)NC(=O)[C@H](CCCNC(=N)N)NC(=O)[C@H](CCSC)NC(=O)CNC(=O)[C@H](C)NC(=O)[C@H](CCCNC(=N)N)NC(=O)[C@H](CCCCN)NC(=O)[C@@H]3CSSC[C@@H](C(=O)N[C@H](C(=O)N4CCC[C@H]4C(=O)N[C@@H](CCCCN)C(=O)O)[C@@H](C)O)NC(=O)[C@H](Cc4c[nH]cn4)NC(=O)[C@H](CSSC[C@H](NC(=O)[C@H](CCC(N)=O)NC(=O)[C@H](CCCNC(=N)N)NC(=O)[C@H](CO)NC1=O)C(=O)N[C@@H](CC(C)C)C(=O)N[C@@H](CCC(=O)O)C(=O)N1CCC[C@H]1C(=O)N3)NC(=O)[C@H](CCCCN)NC(=O)CNC(=O)[C@H](CC(N)=O)NC(=O)[C@H](CCSC)NC2=O [K20R] (H-GVIINVKCKISRQCLEPCKRAGMRFGKCMNGKCHCTPK-OH; disulfide 8-28, 14-33, 18-35) | 0.00985 | < 0.00152 |
| CC[C@H](C)[C@@H]1NC(=O)[C@H](CCCCN)NC(=O)[C@@H](NC(=O)[C@H](CCCCN)NC(=O)[C@@H](NC(=O)[C@H](CC(N)=O)NC(=O)[C@@H](NC(=O)[C@@H](NC(=O)[C@@H](NC(=O)CN)C(C)C)[C@@H](C)CC)[C@@H](C)CC)C(C)C)CSSC[C@@H]2NC(=O)[C@H](CCC(=O)O)NC(=O)CNC(=O)[C@H](Cc3ccccc3)NC(=O)[C@H](CCCNC(=N)N)NC(=O)[C@H](CCSC)NC(=O)CNC(=O)[C@H](C)NC(=O)[C@H](CCCCN)NC(=O)[C@H](CCCCN)NC(=O)[C@@H]3CSSC[C@@H](C(=O)N[C@H](C(=O)N4CCC[C@H]4C(=O)N[C@@H](CCCCN)C(=O)O)[C@@H](C)O)NC(=O)[C@H](Cc4c[nH]cn4)NC(=O)[C@H](CSSC[C@H](NC(=O)[C@H](CCC(N)=O)NC(=O)[C@H](CCCNC(=N)N)NC(=O)[C@H](CO)NC1=O)C(=O)N[C@@H](CC(C)C)C(=O)N[C@@H](CCC(=O)O)C(=O)N1CCC[C@H]1C(=O)N3)NC(=O)[C@H](CCCCN)NC(=O)CNC(=O)[C@H](CC(N)=O)NC(=O)[C@H](CCSC)NC2=O [K27E] (H-GVIINVKCKISRQCLEPCKKAGMRFGECMNGKCHCTPK-OH; disulfide 8-28, 14-33, 18-35) | > 3.33 | 0.549 |
| CC[C@H](C)[C@@H]1NC(=O)[C@H](CCCCN)NC(=O)[C@@H](NC(=O)[C@H](CCCCN)NC(=O)[C@@H](NC(=O)[C@H](CC(N)=O)NC(=O)[C@@H](NC(=O)[C@@H](NC(=O)[C@@H](NC(=O)CN)C(C)C)[C@@H](C)CC)[C@@H](C)CC)C(C)C)CSSC[C@@H]2NC(=O)[C@H](Cc3cccc4ccccc34)NC(=O)CNC(=O)[C@H](Cc3ccccc3)NC(=O)[C@H](CCCNC(=N)N)NC(=O)[C@H](CCSC)NC(=O)CNC(=O)[C@H](C)NC(=O)[C@H](CCCCN)NC(=O)[C@H](CCCCN)NC(=O)[C@@H]3CSSC[C@@H](C(=O)N[C@H](C(=O)N4CCC[C@H]4C(=O)N[C@@H](CCCCN)C(=O)O)[C@@H](C)O)NC(=O)[C@H](Cc4c[nH]cn4)NC(=O)[C@H](CSSC[C@H](NC(=O)[C@H](CCC(N)=O)NC(=O)[C@H](CCCNC(=N)N)NC(=O)[C@H](CO)NC1=O)C(=O)N[C@@H](CC(C)C)C(=O)N[C@@H](CCC(=O)O)C(=O)N1CCC[C@H]1C(=O)N3)NC(=O)[C@H](CCCCN)NC(=O)CNC(=O)[C@H](CC(N)=O)NC(=O)[C@H](CCSC)NC2=O [K27Nal] (H-GVIINVKCKISRQCLEPCKKAGMRFG[1Nal]CMNGKCHCTPK-OH; disulfide 8-28, 14-33, 18-35) | > 3.33 | 1.04 |
| CC[C@H](C)[C@@H]1NC(=O)[C@H](CCCCN)NC(=O)[C@@H](NC(=O)[C@H](CCCCN)NC(=O)[C@@H](NC(=O)[C@H](CC(N)=O)NC(=O)[C@@H](NC(=O)[C@@H](NC(=O)[C@@H](NC(=O)CN)C(C)C)[C@@H](C)CC)[C@@H](C)CC)C(C)C)CSSC[C@@H]2NC(=O)[C@H](CCCNC(=N)N)NC(=O)CNC(=O)[C@H](Cc3ccccc3)NC(=O)[C@H](CCCNC(=N)N)NC(=O)[C@H](CCSC)NC(=O)CNC(=O)[C@H](C)NC(=O)[C@H](CCCCN)NC(=O)[C@H](CCCCN)NC(=O)[C@@H]3CSSC[C@@H](C(=O)N[C@H](C(=O)N4CCC[C@H]4C(=O)N[C@@H](CCCCN)C(=O)O)[C@@H](C)O)NC(=O)[C@H](Cc4c[nH]cn4)NC(=O)[C@H](CSSC[C@H](NC(=O)[C@H](CCC(N)=O)NC(=O)[C@H](CCCNC(=N)N)NC(=O)[C@H](CO)NC1=O)C(=O)N[C@@H](CC(C)C)C(=O)N[C@@H](CCC(=O)O)C(=O)N1CCC[C@H]1C(=O)N3)NC(=O)[C@H](CCCCN)NC(=O)CNC(=O)[C@H](CC(N)=O)NC(=O)[C@H](CCSC)NC2=O [K27R] (H-GVIINVKCKISRQCLEPCKKAGMRFGRCMNGKCHCTPK-OH; disulfide 8-28, 14-33, 18-35) | 1.49 | > 3.33 |
| CC[C@H](C)[C@@H]1NC(=O)[C@H](CCCCN)NC(=O)[C@@H](NC(=O)[C@H](CCCCN)NC(=O)[C@@H](NC(=O)[C@H](CC(N)=O)NC(=O)[C@@H](NC(=O)[C@@H](NC(=O)[C@@H](NC(=O)CN)C(C)C)[C@@H](C)CC)[C@@H](C)CC)C(C)C)CSSC[C@@H]2NC(=O)[C@H](CCCCN)NC(=O)CNC(=O)[C@H](Cc3ccccc3)NC(=O)[C@H](CCCNC(=N)N)NC(=O)[C@H](CCSC)NC(=O)CNC(=O)[C@H](C)NC(=O)[C@H](CCCCN)NC(=O)[C@H](CCCCN)NC(=O)[C@@H]3CSSC[C@@H](C(=O)N[C@H](C(=O)N4CCC[C@H]4C(=O)N[C@@H](CCCCN)C(=O)O)[C@@H](C)O)NC(=O)[C@H](Cc4c[nH]cn4)NC(=O)[C@H](CSSC[C@H](NC(=O)[C@H](CCC(N)=O)NC(=O)[C@H](CCCNC(=N)N)NC(=O)[C@H](CO)NC1=O)C(=O)N[C@@H](CC(C)C)C(=O)N[C@@H](CCC(=O)O)C(=O)N1CCC[C@H]1C(=O)N3)NC(=O)[C@H](CCC(=O)O)NC(=O)CNC(=O)[C@H](CC(N)=O)NC(=O)[C@H](CCSC)NC2=O [K32E] (H-GVIINVKCKISRQCLEPCKKAGMRFGKCMNGECHCTPK-OH; disulfide 8-28, 14-33, 18-35) | 0.0156 | 0.0173 |
| CC[C@H](C)[C@@H]1NC(=O)[C@H](CCCCN)NC(=O)[C@@H](NC(=O)[C@H](CCCCN)NC(=O)[C@@H](NC(=O)[C@H](CC(N)=O)NC(=O)[C@@H](NC(=O)[C@@H](NC(=O)[C@@H](NC(=O)CN)C(C)C)[C@@H](C)CC)[C@@H](C)CC)C(C)C)CSSC[C@@H]2NC(=O)[C@H](CCCCN)NC(=O)CNC(=O)[C@H](Cc3ccccc3)NC(=O)[C@H](CCCNC(=N)N)NC(=O)[C@H](CCSC)NC(=O)CNC(=O)[C@H](C)NC(=O)[C@H](CCCCN)NC(=O)[C@H](CCCCN)NC(=O)[C@@H]3CSSC[C@@H](C(=O)N[C@H](C(=O)N4CCC[C@H]4C(=O)N[C@@H](CCCCN)C(=O)O)[C@@H](C)O)NC(=O)[C@H](Cc4c[nH]cn4)NC(=O)[C@H](CSSC[C@H](NC(=O)[C@H](CCC(N)=O)NC(=O)[C@H](CCCNC(=N)N)NC(=O)[C@H](CO)NC1=O)C(=O)N[C@@H](CC(C)C)C(=O)N[C@@H](CCC(=O)O)C(=O)N1CCC[C@H]1C(=O)N3)NC(=O)[C@H](CCCNC(=N)N)NC(=O)CNC(=O)[C@H](CC(N)=O)NC(=O)[C@H](CCSC)NC2=O [K32R] (H-GVIINVKCKISRQCLEPCKKAGMRFGKCMNGRCHCTPK-OH; disulfide 8-28, 14-33, 18-35) | 0.0308 | 0.00724 |
| CC[C@H](C)[C@@H]1NC(=O)[C@H](CCCCN)NC(=O)[C@@H](NC(=O)[C@H](CCCCN)NC(=O)[C@@H](NC(=O)[C@H](CC(N)=O)NC(=O)[C@@H](NC(=O)[C@@H](NC(=O)[C@@H](NC(=O)CN)C(C)C)[C@@H](C)CC)[C@@H](C)CC)C(C)C)CSSC[C@@H]2NC(=O)[C@H](CCCCN)NC(=O)CNC(=O)[C@H](Cc3ccccc3)NC(=O)[C@H](CCCNC(=N)N)NC(=O)[C@H](CCSC)NC(=O)CNC(=O)[C@H](C)NC(=O)[C@H](CCCCN)NC(=O)[C@H](CCCCN)NC(=O)[C@@H]3CSSC[C@@H](C(=O)N[C@H](C(=O)N4CCC[C@H]4C(=O)N[C@@H](CCC(=O)O)C(=O)O)[C@@H](C)O)NC(=O)[C@H](Cc4c[nH]cn4)NC(=O)[C@H](CSSC[C@H](NC(=O)[C@H](CCC(N)=O)NC(=O)[C@H](CCCNC(=N)N)NC(=O)[C@H](CO)NC1=O)C(=O)N[C@@H](CC(C)C)C(=O)N[C@@H](CCC(=O)O)C(=O)N1CCC[C@H]1C(=O)N3)NC(=O)[C@H](CCCCN)NC(=O)CNC(=O)[C@H](CC(N)=O)NC(=O)[C@H](CCSC)NC2=O [K38E] (H-GVIINVKCKISRQCLEPCKKAGMRFGKCMNGKCHCTPE-OH; disulfide 8-28, 14-33, 18-35) | 0.0258 | 0.0343 |
